Data as given in patent EP3298025B1, “NEW AMINO ACID SEQUENCES WITH MI[…] DERIVED FROM NAJA ATRA CARDIOTOXIN 1 (CTX-1)” (Università degli Studi di Parma, priority 2015, dated 2016).
Values joined by “and” are separate entries in the source; they are usually repeats but may differ in a detail not shown here. Equal values may be shown once. Residues, ends and D or L forms follow the SMILES beside them.

What was measured:
Type in all cases: cell-based
[1] = test system: Gram-negative tested bacteria; assay: micro-dilution and transplant on agar, summary over Gram-negative panel; settings: almost all Gram-negative tested bacteria
Experimental: For each bacterial strain 3-5 morphologically similar colonies from fresh cultures were taken and inoculated in Brain Heart Infusion broth, then incubated at 37°C in agitation at 225 r.p.m. for about 3-4 hours. Then the bacterial suspension was centrifuged at 1000 G for 20 minutes and the pellet resuspended in phosphate buffer pH 7, 10 mM. The turbidity of the bacterial suspension was measured using a spectrophotometer with absorbance of 600 nm; the range 0.08-0.13 equates to about 10^8 cfu/ml. The bacterial suspension was diluted 1:100 in phosphate buffer 10mM to obtain a bacterial concentration of about 10^6 cfu/ml. Within 30 minutes 50 µl of the suspension (10^6 cfu/ml) were inoculated in each well of the microtiter plate, to obtain a bacterial concentration of about 5x10^5 cfu/ml.
The peptides ability to inhibit the bacterial growth in liquid cultures was tested. 50 µl of each peptides solutions of about 0,2-50 µM were added in microtiter plates with 96 wells with U-shaped bottom, containing the liquid culture medium and one of these bacterial strains: E coli ATCC 25922, Pseudomonas. […]
The bacterial suspension and peptides were put in contact for 2 hours at 37°C, with differing concentrations of the peptide. […] After an incubation time of 24 hours at 37°C, the bacterial colonies (cfu) were counted.

tested fungal strains = assay: micro-dilution and transplant on solid medium, summary over yeast panel; settings: over Candida albicans ATCC 10231, Candida glabrata ATCC 2001 and Malassetia pachydermatis ATCC 14522
Experimental: Candida albicans ATCC 10231, Candida glabrata ATCC 2001 and Malassetia pachydermatis ATCC 14522 were cultivated in Czapek-Dox broth (DIFCO) medium for 48-72 hours. On the day of the test the fungal culture was centrifuged at 1700G for 15 minutes and the pellet resuspended in phosphate buffer, then put in agitation on an electric vortex to disrupt fungal cell aggregations. The suspension was diluted to get a final optical density of 0,5 of the McFarland scale (about 1-5x10^6 cell/ml) (Branda J.A., Krantz A. Effect of yeast on automated cell counting. Am J Clin Pathol., 2006:126, 248-254.).
Peptides ability to inhibit the fungal growth in liquid cultures was tested. 50 µl of each peptides solutions of about 0.2-50 µM were added in microtiter plates with 96 wells with U-shaped bottom, with liquid culture medium and one of these fungi: Candida albicans ATCC 10231, Candida glabrata ATCC 2001 and Malassetia pachydermatis ATCC 14522. After 2 hours of incubation at 37°C, fungal suspensions were plated on solid culture medium, agar Sabouraud. Fungal cultures were cultivated without peptides as growth control.
the fungal suspension and peptides at differing concentrations were in contact for about 2 hours at 37°C. […] After an incubation time of 24 hours at 37°C, the fungal colonies (cfu) were counted.

[2] = test system: epithelial MDBK cells (Madin Darby Bovine Kidney); assay: cytotoxicity against eukaryotic cells, Trypan Blue; settings: overnight incubation
Experimental: Peptides cytotoxicity against epithelial MDBK cells (Madin Darby Bovine Kidney) was determined using cell cultures of about 5x10^5 cells/ml with and without peptides, with overnight incubation at 37°C with CO2. The negative control was in medium without peptide; positive control was in medium with 0.2% of Triton x100, to completely lyse cells. Cells vitality was assessed adding every well with 20 µl of Trypan Blue, incubating other 5 minutes at 37°C. MCC10 was the minimal peptide concentration with 10% of cytotoxicity.

E. coli ATCC 25922 = assay: antimicrobial activity in presence of Muller-Hinton 20%; settings: 20% of Muller-Hinton medium
Experimental: (§1) This example verifies the peptides antimicrobial activity in presence of a concentration of 20% of Muller-Hinton liquid medium, characterized by the presence of salts with high concentration.
(§2) Peptides were tested in the ability to inhibit bacterial growth in liquid medium. 50 µl of peptides at a concentration between 3.1 µg/ml (NCP-0=1.4µM; NCP-2=[…]; NCP-3=1.3 µM) and 100 µg/ml (NCP-0=46.3 µM; NCP-2=43.2 µM; NCP-3=41.6 µM) were added in microtiter plate wells with phosphate buffer 10 mM with Muller-Hinton liquid medium al the final concentration of 20% and one of these bacteria: E. coli ATCC 25922, Pseudomonas aeruginosa ATCC 27853, Staphylococcus aureus ATCC 25923 and Staphylococcus aureus methicillin resistant ATCC 43300. After 2 hours incubation at 37°C, bacteria were transplanted on solid culture medium. Bacterial cultures were cultivated without peptides as growth control.

[3] = test system: Pseudomonas aeruginosa ATCC 27853; assay: as above; settings: 20% of Muller-Hinton medium
Experimental: as §1, §2

[4] = test system: Staphylococcus aureus ATCC 25923; assay: as above; settings: 20% of Muller-Hinton medium
Experimental: as §1, §2

CC[C@H](C)[C@H](NC(=O)[C@H](CCCCN)NC(=O)[C@H](Cc1ccc(O)cc1)NC(=O)[C@H](CS)NC(=O)[C@H](CC(C)C)NC(=O)[C@H](CC(N)=O)NC(=O)[C@H](CCCCN)NC(=O)CNC(=O)[C@H](C)NC(=O)[C@@H]1CCCN1C(=O)[C@H](CS)NC(=O)[C@@H](NC(=O)[C@H](CCCCN)NC(=O)[C@H](CO)NC(=O)[C@H](C)NC(=O)[C@@H](NC(=O)[C@@H]1CCCN1C(=O)[C@@H](NC(=O)[C@H](CC(C)C)NC(=O)[C@@H](N)CCCCN)[C@@H](C)CC)[C@@H](C)CC)[C@@H](C)O)C(=O)O [NCP-0, K LIPIA SKT CPA GKN LCY KI] (H-KLIPIASKTCPAGKNLCYKI-OH; N-terminus and C-terminus assumed)
antimicrobial activity [1]: scarcely active
LD99 (tested fungal strains): > 150 µg/ml and > 69.2 µM
Cytotoxicity: cell number percentage reduction in comparison with control ([2]; peptide 12.5 µg/ml): 4%
Cytotoxicity: cell number percentage reduction in comparison with control ([2]; peptide 100 µg/ml): 6%
Antimicrobial activity (% to control) (E. coli ATCC 25922; peptide 3.1 µg/ml): 0%
Antimicrobial activity (% to control) (E. coli ATCC 25922; peptide 6.3 µg/ml): 0%
Antimicrobial activity (% to control) (E. coli ATCC 25922; peptide 12.5 µg/ml): 0%
Antimicrobial activity (% to control) (E. coli ATCC 25922; peptide 100 µg/ml): 0%
Antimicrobial activity (% to control) ([3]; peptide 3.1 µg/ml): 0%
Antimicrobial activity (% to control) ([3]; peptide 6.3 µg/ml): 0%
Antimicrobial activity (% to control) ([3]; peptide 12.5 µg/ml): 0%
Antimicrobial activity (% to control) ([3]; peptide 100 µg/ml): 0%
Antimicrobial activity (% to control) ([4]; peptide 3.1 µg/ml): 0%
Antimicrobial activity (% to control) ([4]; peptide 6.3 µg/ml): 0%
Antimicrobial activity (% to control) ([4]; peptide 12.5 µg/ml): 0%
Antimicrobial activity (% to control) ([4]; peptide 100 µg/ml): 0%
